Measurements reported in patent US8709419B2, “Combination therapy” (Hoffmann-La Roche, Inc., priority 2010, dated 2014).
Where a name gives a salt, the structure may show the parent alone. Read-outs that look alike come from different tables or passages of the source.

Columns and labels:
[1] = system: Human HT-29 Cell Xenografts; details: for tumor regression (partial or complete): Ex.6: Compound I 25 mg/kg bid, cetuximab 40 mg/kg 2x/wk, irinotecan HCl 40 mg/kg q4d x5 monotherapies, cetuximab + irinotecan combination
[2] = Toxicity in Example 5 study: body weight change, mortality, gross observation
[3] = Solubility in water, amorphous versus crystalline form; type: physicochemical; details: amorphous form as compared with the crystalline form
[4] = system: Human HT-29 Cell Xenografts; assay: HT-29 xenograft mice, Example 5 (Compound I / cetuximab, treatment day 12-34): tumor growth inhibition, regression, survival; type: in vivo; details: for 50% Treatment Days: median survival
Description: (§1) Differences between groups were considered to be significant when the probability value (p) was ≦0.05.
(§2) For survival assessment, the percent of increased life space (ILS) was calculated as: 100×[(median survival day of treated group−median survival day of control group)/median survival day of control group]. Median survival was determined utilizing Kaplan Meier survival analysis. […] Differences between groups were considered significant when the probability value (p) was ≦0.05.
(§3) Tumor measurements were taken once or twice per week. All animals were individually followed throughout the experiment.

[5] = Toxicity in Example 6 study: body weight change, mortality, gross observation
[6] = system: Human HT-29 Cell Xenografts; assay: HT-29 xenograft mice, Example 4 (Compound I / erlotinib HCl, treatment day 12-29): tumor growth inhibition, regression, survival; type: in vivo; details: for Complete Regression / Partial Regression: animals of 10 per group; for 50% Treatment Days: median survival
Description: as §1, §2, §3

[7] = erlotinib hydrochloride 100 mg/kg qd in combination; Higgins et al., Anticancer Drugs 15:503-12 (2004); cited from earlier work
[8] = Toxicity in Example 4 study: body weight change, mortality, gross observation
Description: Erlotinib hydrochloride at 100 mg/kg qd was included as a monotherapy arm for comparison.

[9] = Ex.6: Compound I 25 mg/kg bid po, animals of 10 per group
[10] = Ex.5: Compound I 25 mg/kg bid po
[11] = Ex.5: Compound I 75 mg/kg bid po
[12] = Ex.5: Compound I 75 mg/kg bid po, animals of 10 per group
[13] = Ex.6: Compound I 25 mg/kg bid po
[14] = Ex.4: Compound I 75 mg/kg bid po
[15] = Ex.6: irinotecan HCl 40 mg/kg q4d x5 ip
[16] = Ex.4: erlotinib HCl 67 mg/kg qd po
[17] = Ex.4: erlotinib HCl 100 mg/kg qd po

CCCS(=O)(=O)Nc1ccc(F)c(C(=O)c2c[nH]c3ncc(-c4ccc(Cl)cc4)cc23)c1F [Compound I, propane-1-sulfonic acid {3-[5-(4-chloro-phenyl)-1H-pyrrolo[2,3-b]pyridine-3-carbonyl]-2,4-difluoro-phenyl}-amide]
Complete Regression [1, 9]: 0
Partial Regression [1, 9]: 0
tumor regression (partial or complete) [1]: no regressions
# animals ≧ 20% BWL [2, 10]: 0
% Change in Body Weight at end of Study Day 34 [2, 10]: 0.1%
Max % Weight Gain [2, 10]: 0.3%
Max % Weight Loss [2, 10]: −2.2%
Mortality [2, 10]: 0
# animals ≧ 20% BWL [2, 11]: 0
% Change in Body Weight at end of Study Day 34 [2, 11]: −0.1%
Max % Weight Gain [2, 11]: 0.7%
Max % Weight Loss [2, 11]: −1.4%
Mortality [2, 11]: 0
solubility in water [3]: greater solubility in water
% ILS [4, 10]: 44%
% Inhibition end of study Day: 34 [4, 10]: 74%
% T/C end of study Day: 34 [4, 10]: 26%
% Tumor Growth Inhibition [4, 10]: 74%
Mean Tumor Volume (mm^3) End Study [4, 10]: 615.99 mm^3
50% Treatment Days [4, 10]: 46 days
% ILS [4, 11]: 75%
% Inhibition end of study Day: 34 [4, 11]: 93%
% T/C end of study Day: 34 [4, 11]: 7%
% Tumor Growth Inhibition [4, 11]: 93%
Mean Tumor Volume (mm^3) End Study [4, 11]: 275.66 mm^3
Complete Regression [4, 12]: 0
Partial Regression [4, 12]: 0
50% Treatment Days [4, 11]: 56 days
# animals ≧ 20% BWL [5, 13]: 0
% Change in Body Weight at end of Study Day 32 [5, 13]: 2.9%
Max % Weight Gain [5, 13]: 3.8%
Max % Weight Loss [5, 13]: −0.6%
Mortality [5, 13]: 0
% ILS [6, 14]: 100%
% Inhibition end of study Day: 29 [6, 14]: 91%
% T/C end of study Day: 29 [6, 14]: 9%
% Tumor Growth Inhibition [6, 14]: 91%
Mean Tumor Volume (mm^3) End Study [6, 14]: 270.24 mm^3
Complete Regression [6, 14]: 0
Partial Regression [6, 14]: 0
50% Treatment Days [6, 14]: 52 days

CCc1c2c(nc3ccc(OC(=O)N4CCC(N5CCCCC5)CC4)cc13)-c1cc3c(c(=O)n1C2)COC(=O)[C@]3(O)CC [Irinotecan HCl, irinotecan hydrochloride, reference compound]
tumor regression (partial or complete) [1]: no regressions
% ILS [1, 15]: 17%
# animals ≧ 20% BWL [5, 15]: 0
% Change in Body Weight at end of Study Day 32 [5, 15]: 2.7%
Max % Weight Gain [5, 15]: 2.8%
Max % Weight Loss [5, 15]: 0.1%
Mortality [5, 15]: 0

C#Cc1cccc(Nc2ncnc3cc(OCCOC)c(OCCOC)cc23)c1 [Erlotinib HCl, erlotinib hydrochloride]
tolerability in combination (historical) [7]: not well tolerated
# animals ≧ 20% BWL [8, 16]: 0
% Change in Body Weight at end of Study Day 29 [8, 16]: 3.1%
Max % Weight Gain [8, 16]: 3.1%
Max % Weight Loss [8, 16]: 0.1%
Mortality [8, 16]: 0
# animals ≧ 20% BWL [8, 17]: 0
% Change in Body Weight at end of Study Day 29 [8, 17]: 2.9%
Max % Weight Gain [8, 17]: 3.0%
Max % Weight Loss [8, 17]: −1.6%
Mortality [8, 17]: 0
EGFR inhibitor related skin rash ([8]; Ex.4: mice treated with erlotinib hydrochloride, self limiting under continuous treatment): skin rash was common
% ILS [6, 16]: 35%
% Inhibition end of study Day: 29 [6, 16]: 38%
% T/C end of study Day: 29 [6, 16]: 62%
% Tumor Growth Inhibition [6, 16]: 38%
Mean Tumor Volume (mm^3) End Study [6, 16]: 1025.10 mm^3
Complete Regression [6, 16]: 0
Partial Regression [6, 16]: 0
50% Treatment Days [6, 16]: 35 days
% ILS [6, 17]: 38%
% Inhibition end of study Day: 29 [6, 17]: 51%
% T/C end of study Day: 29 [6, 17]: 49%
% Tumor Growth Inhibition [6, 17]: 51%
Mean Tumor Volume (mm^3) End Study [6, 17]: 838.75 mm^3
Complete Regression [6, 17]: 0
Partial Regression [6, 17]: 0
50% Treatment Days [6, 17]: 36 days
